According to paper doi:10.1101/2025.08.13.670122v1 (bioRxiv, 2025):

What was measured:
Sprague-Dawley rats = assay: Simultaneous in vivo echocardiography and blood pressure measurements; design: species or system rat; conditions: intrajugular perfusion 0.96 nmol kg−1 min−1, n = 4; for Change in left ventricular ejection fraction (ΔEF) / cardiac contractility: isoflurane-anesthetized Sprague-Dawley rats; for Change in mean arterial blood pressure (ΔMABP): isoflurane-anesthetized normotensive Sprague-Dawley rats
Protocol: All ligands were administered intravenously at the same dose (0.96 nmol kg^−1 min^−1), by instrumentalizing adult Sprague-Dawley rats for simultaneous recordings of arterial blood pressure and cardiac function (Figure 5A).
Figure 5. Simultaneous in vivo cardiac ultrasound imaging and blood pressure monitoring of adult Sprague-Dawley rats following constant administration of AT1R ligands. (A) The acquisition setup for each isoflurane-anesthetized rat includes a catheter in the right femoral artery connected to a TDX300 Micro-med transducer and BPA-100c blood pressure (BP) analyzer for continuous BP measurement, while drug administration is performed via a catheter inserted in the left jugular vein and linked to an automatic syringe pump set at a flow rate of 30 µl*min^−1. […] The syringe pump is initiated at 0 s, and the catheter’s saline dead volume is flushed in approximately 180 s.
Figure 6. […] Changes in mean arterial blood pressure (ΔMABP; A), ejection fraction (ΔEF; B), left ventricular end-systolic (ΔLVES; C) and end-diastolic (ΔLVEDV; D) volumes, and stroke volume (ΔSV; E) were measured from simultaneous in vivo cardiac blood pressure monitoring and ultrasound imaging. […] The syringe pump is initiated at 0 s, and the catheter’s saline dead volume is flushed in approximately 180 s. […] Statistical analyses were performed with an unpaired standard t-test. * p < 0.05, ** p < 0.01 and ***p<0.005.
Male Sprague-Dawley rats (230–350 g, 7–9 weeks of age) were initially anesthetized with 5% isoflurane (mixed with 100% oxygen at a flow rate of 2.5 L/min). The animal was placed in a supine position on a thermostatic pad set at 37°C, and anesthesia was maintained with 2% isoflurane, confirmed by the absence of reflexes to toe pinch. The right femoral artery was cannulated with a PE 50 catheter filled with heparinized saline (10 units/mL) and connected to a Micro-Med transducer (TDX-300) and a Micro-Med blood pressure analyzer (BPA-100c). The left jugular vein was also cannulated with a PE 50 catheter filled with heparinized saline (10 units/mL) and connected to a syringe operated by an automatic pump with a flow rate of 30 µL min-1. […] Blood pressure parameters were continuously obtained throughout the experiment, and heart function parameters were simultaneously captured at various time points using a Vevo3100 echocardiography system equipped with an MX250 ultrasound probe (FUJIFILM VisualSonics). The ejection fraction was determined from a parasternal long-axis view of the left ventricle in B-mode imaging and analyzed using Vevo LAB 5.7.1 (FUJIFILM VisualSonics). Data were presented as the mean ± SEM of four different rats per group. Statistical analyses were conducted with standard analysis of variance (ANOVA) followed by Tukey’s multiple comparisons test. […]

endogenous AT1R [1] = target: T1, endogenous AT1R (Rattus norvegicus, UniProt P25095); assay: PKC BRET sensor in rat primary VSMC with endogenous AT1R; type: cell-based; conditions: adenoviral PKC BRET sensor, 1 min stimulation, mean ± SEM of at least three to five independent experiments, read-out: EC50 PKC in VSMCs
T1 construct: expressing low levels of endogenous AT1R; endogenous in cells; host or cells: rat primary VSMC, passages 13-15
T1 sequence (P25095 1-359): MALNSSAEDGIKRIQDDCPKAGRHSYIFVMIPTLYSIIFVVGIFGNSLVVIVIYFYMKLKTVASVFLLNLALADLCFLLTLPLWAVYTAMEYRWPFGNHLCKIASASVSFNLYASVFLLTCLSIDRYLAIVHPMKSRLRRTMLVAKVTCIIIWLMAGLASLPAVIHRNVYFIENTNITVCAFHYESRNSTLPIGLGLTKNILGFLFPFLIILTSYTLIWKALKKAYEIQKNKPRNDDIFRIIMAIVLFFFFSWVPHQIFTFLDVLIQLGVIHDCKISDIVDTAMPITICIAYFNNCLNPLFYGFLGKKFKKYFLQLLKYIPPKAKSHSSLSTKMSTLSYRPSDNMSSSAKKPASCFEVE
From the text: (§1) We next assessed the analogs’ ability to engage Gαq by assessing either the PKC or Rho responses in rat primary vascular smooth muscle cell (VSMC) culture, expressing low levels of endogenous AT1R (between 25–50 fmol/mg) (Figure 4, Table 6).
(§2) The coding regions of the PKC-c1b sensor, PKN-RBD-RlucII, and rGFPcaax were PCR-amplified and subcloned into the KpnI/XhoI sites of the pENTR3C vector (Invitrogen), respectively. These were then transferred into the adenoviral expression vector pAd/CMV/V5-DEST (Invitrogen), via gateway cloning (pAD-CMV-PKC-c1b, pAD-CMV-PKN-RBD-RLucII, and pAD-CMV-rGFPcaax). Viruses containing the sensor codes were generated following a previously outlined process.[49] […] The following day, cells were transfected with 4 µg of PacI-digested pAd5-CMVsensors using Lipofectamine 2000 (Invitrogen). After 7–10 days post-transfection, mature virus particles were gleaned via the collection of cells and media, which then underwent multiple cycles of freezing and thawing, followed by centrifugation. The harvested virus was amplified by re-infection on 100-mm dishes of confluent HEK293A cells, and harvested 48-72 h later. Viral titers were determined by serial dilution of adenovirus stock and subsequent infection of HEK293A cells in 96-well plates. 36 h after infection, cells were stained using an anti-hexon antibody (ab8249; Abcam), and hexon-expressing cells were tallied via fluorescence microscopy. The virus was then stored at −80°C. After this, rat VSMCs (between the 13th to 15th passages) were seeded at a density of 20,000 cells in each well of white 96-well plates 24 h before transduction with the viral vector. The cells were then transduced with the PKC sensor-adenovirus (3 μL per well) or Rho sensor (1 μL each per well of PKN-RBD-RLucII-adnovirus and rGFP-caax adenovirus). After 24 h, the medium was replaced. 48 h post-viral transduction, the cells were thoroughly washed with Tyrode’s buffer. Finally, BRET assays were carried out as detailed below.
(§3) On the day of the experiment, each well was washed with 80 µL of Tyrode’s buffer (140 mM NaCl, 2.7 mM KCl, 1 mM CaCl2, 12 mM NaHCO3, 5.6 mM D-glucose, 0.5 mM MgCl2, 0.37 mM NaH2PO4, 25 mM Hepes (pH 7.4)). This was followed by incubation for 1 h in Tyrode’s buffer at room temperature. For the Gαq, β-arrestin-2, and PKC biosensors used in HEK293 cells, coelenterazine 400A (at a final concentration of 5 μM) was added 10 min before stimulation. Cells were then stimulated with increasing doses of the indicated ligand, and BRET signals were measured using a Tristar2 (Berthold) microplate reader 10 min later. For the PKC and Rho biosensors in VSMCs, and the Rho biosensor in ΔG12/13 cells, cells were similarly stimulated with ligands for 1 min, 1 min 30 s, and 3 min, respectively, before BRET measurement. […] BRET signals were then measured using a Synergy2 (BioTek) microplate reader. The applied filter set was 410/80 nm and 515/30 nm, designed to detect the light emissions of RlucII (Renilla luciferase) (donor) and rGFP (acceptor), respectively.

endogenous AT1R [2] = target: T1, endogenous AT1R; assay: Rho BRET sensor in rat primary VSMC with endogenous AT1R; type: cell-based; conditions: adenoviral Rho BRET sensor, 1 min 30 s stimulation, mean ± SEM of at least three to five independent experiments, read-out: EC50 Rho in VSMCs
From the text: as §1, §2, §3

Plasma stability = type: in vitro ADME; conditions: male Sprague-Dawley rat plasma, 6 μL of 1 mM compound (10% DMSO) in 27 μL plasma, 37°C, 0-24 h, UPLC-MS, one-phase decay, mean ± SEM of at least three experiments, read-out: Plasmatic half-life t1/2 (±SEM)
Protocol: The degradation was quenched by adding 140 μL of 1% formic acid in an acetonitrile-ethanol (1:1) solution containing 0.25 mM of N,N-dimethylbenzamide (used as an internal standard). This mixture was initially transferred to an Impact Protein Precipitation filter plate (Phenomenex, California), the filtrates from which were subsequently collected in a second 96-well UPLC plate. Both plates were centrifuged at 500 g for 10 min while maintaining a temperature of 4°C. The filtrates were then diluted with 30 μL of distilled water and processed for analysis using an Acquity UPLC-MS system class H (using an Acquity UPLC protein BEH C18 column that measured 2.1 mm × 50 mm and had 1.7 μm particles with pores 130 Å in width). The peptide half-life, derived from the degradation curve, was calculated using the exponential one-phase decay function in GraphPad Prism 9. Degradation was estimated by comparing the mass spectrum at each point with those at the zero-minute mark. The data were presented as a mean ± SEM of at least three unique experiments, each performed in singlicate.

Row | SMILES | Change in left ventricular ejection fraction (ΔEF) / cardiac contractility (Sprague-Dawley rats) | Change in mean arterial blood pressure (ΔMABP) (Sprague-Dawley rats) | EC50 (endogenous AT1R [1]) [µM] | EC50 (endogenous AT1R [2]) [µM] | half-life at 182 µM (Plasma stability) [h]
1 | CC[C@H](C)[C@H](NC(=O)[C@H](Cc1ccc(O)cc1)NC(=O)[C@@H](NC(=O)[C@H](CCCNC(=N)N)NC(=O)[C@@H](N)CC(=O)O)C(C)C)C(=O)N[C@@H](Cc1c[nH]cn1)C(=O)N1CCC[C@H]1C(=O)N[C@@H](Cc1ccccc1)C(=O)O [AngII, Angiotensin II] | significant decrease in cardiac ejection fraction of the left ventricle | rapid and sustained increase in arterial blood pressure |  |  | 
2 | CCCc1nc(C(C)(C)O)c(C(=O)O)n1Cc1ccc(-c2ccccc2-c2nnn[nH]2)cc1 [Olmesartan] | did not alter the cardiovascular parameters measured | did not alter the cardiovascular parameters measured |  |  | 
3 | CC[C@H](C)[C@H](NC(=O)[C@H](Cc1ccc(O)cc1)NC(=O)[C@@H](NC(=O)[C@H](CCCNC(=N)N)NC(=O)CNC)C(C)C)C(=O)N[C@@H](Cc1cnc[nH]1)C(=O)N1CCC[C@H]1C(=O)N[C@H](C)C(=O)O [TRV027, reference compound] |  |  | > 10 | > 10 | 16.1 ± 1.2
